Assay results reported in patent publication US20020137722A1, “Method for treating a patient with neoplasia by treatment with a paclitaxel derivative” (priority 1998, published 2002).
Each block holds one compound with its values, some of them ahead of it.

Experiments:
[1] = system: premalignant lesions in mouse mammary gland organ culture; test: Mammary gland organ culture model, DMBA-induced premalignant lesions; conditions: for inhibition of formation of premalignant lesions: mammary gland organ culture
Method: For example, female BALB/c mice can be treated with a combination of estradiol and progesterone daily, in order to prime the glands to be responsive to hormones in vitro. The animals are sacrificed and thoracic mammary glands are excised aseptically and incubated for ten days in growth media supplemented with insulin, prolactin, hydrocortisone, and aldosterone. DMBA (7,12-dimethylbenz(a)anthracene) is added to medium to induce the formation of premalignant lesions. Fully developed lands are then deprived of prolactin, hydrocortisone, and aldosterone, resulting in the regression of the glands but not the pre malignant lesions.
The test compound is dissolved in DMSO and added to the culture media for the duration of the culture period. At the end of the culture period, the glands are fixed in 10% formalin, stained with alum carmine, and mounted on glass slides. The extent of the area occupied by the mammary lesions can be quantitated by projecting an image of the gland onto a digitation pad. The area covered by the gland is traced on the pad and considered as 100% of the area. The space covered by each of the unregressed structures is also outlined on the digitization pad and quantitated by the computer.
The incidence of forming mammary lesions is the ratio of the glands with mammary lesions to […]. The incidence of mammary lesions in test compound treated glands is compared with that of the untreated glands.
Mammary gland organ culture experiments were performed as previously described (Mehta and Moon, Cancer Research, 46: 5832-5835, 1986). […] The data support the hypothesis that cyclooxygenase inhibition is not necessary for the anti-neoplastic properties of desired compounds.

[2] = reversible; cited from earlier work
[3] = system: PDE peak B (novel cGMP-PDE); test: cGMP hydrolysis by PDE peak B isolated from SW-480 cells; type: biochemical, human
PDE peak A (PDE5) = biological target: T1, PDE peak A (PDE5) (Homo sapiens, UniProt O76074); test: cGMP hydrolysis by PDE peak A isolated from SW-480 cells; type: biochemical
T1 construct: SW-480 cells are collected and homogenized; The homogenate is centrifuged, and the supernatant is loaded onto a DEAE-Trisacryl M column; endogenous in cells; host or cells: SW-480 human colon adenocarcinoma cells (DEAE-Trisacryl M fraction, peak A)

[4] = system: HT-29 colon adenocarcinoma cells; test: Apoptosis by DNA fragmentation assay in HT-29 cells; type: cell-based, human
COX = COX inhibition; type: biochemical
cGMP-PDE = cGMP-PDE inhibition assay, enzyme from HT-29 cultured tumor cells; type: biochemical, human; conditions: for cGMP PDE % Inhibition at 100 μM: 100 μM (test compounds)
HT-29 cells [5] = test: HT-29 tumor cell growth inhibition, SRB assay; type: cell-based, human; set-up: Growth Inhibition: key to the marks not given beside the values; conditions: for Growth inhibitory activity % Inhibition at 100 μM: 100 μM single dose
HT-29 cells [6] = test: Apoptosis and necrosis by morphology (acridine orange/ethidium bromide) in HT-29 cells; type: cell-based, human; conditions: 120 μM, time course
Method: Growth inhibition (FIG. 9A, top) was measured by counting viable cells after trypan blue staining. Apoptosis (FIG. 9B, bottom) was measured by morphological determination following staining with acridine orange and ethidium bromide as described previously and Cohen, In: Current Protocols in Immunology, 3.17.1-3.17.16 New York, John Wiley and Sons, 1992). […] All data were collected from the same experiment.
Following treatment with a test compound, cultures can be assayed for apoptosis and necrosis by fluorescent microscopy following labeling with acridine orange and ethidium bromide. […]
Reference compounds and test compounds were analyzed for their cGMP-specific PDE inhibitory activity in accordance with the protocols for the assay, supra. […] Apoptotic and necrotic cell death was determined as previously described (Duke and Cohen, In: Current Protocols in Immunology, 3.17.1-3.17.16, New York. John Wiley and Sons, 1992). […]
The apoptosis inducing activity for a series of phosphodiesterase inhibitors was determined. […] Apoptosis and necrosis were determined morphologically after acridine orange and ethidium bromide labeling in accordance with the assay described supra.

HT-29 cells [7] = test: Cyclic nucleotide (cGMP, cAMP) levels in HT-29 cells by radioimmunoassay; type: cell-based, human; conditions: HT-29 cells treated 30 minutes
Method: The amount of PDE activity can be determined by assaying for the amount of cyclic GMP in the extract of treated cells using a radioimmunoassay (RIA). In this procedure, a neoplastic cell line is incubated with a test compound. […]
It has been observed that a compound which is useful in the practice of this invention (i.e.. one that selectively induces apoptosis in neoplastic cells, but not substantially in normal cells) follows a time course consistent with cGMP-specific PDE inhibition. […] The intracellular targets of these drug actions are being studied further, but current data support the concert that the initial rise in cGMP content and the subsequent fall in cGMP content precede apoptosis in neoplastic cells exposed to test compounds useful in this invention. To determine the cyclic AMP content in cell extracts, radioimmunoassay techniques similar to those described above for cGMP are used.

inhibition of peak A / PDE5 activity (PDE peak A (PDE5)): inhibits both PDES and the new cGMP-PDE
Compound: CC1=C(CC(=O)O)c2cc(F)ccc2/C1=C\c1ccc(S(C)(=O)=O)cc1 [Exisulind, (Z)-5-fluoro-2-methyl-1-[[4-(methylsulfonyl)phenyl]methylene]indene-3-yl acetic acid]
inhibition of formation of premalignant lesions [1]: effectively inhibit the formation of premalignant lesions
side effects at doses higher than the recommended therapeutic levels [2]: elevated levels of liver enzymes
sensitivity of the new cGMP-PDE (peak B) to inhibition [3]: inhibits both PDES and the new cGMP-PDE

Compound: CCN(CC)CCSC12CC(=O)OC1(C)/C(=C/c1ccc(S(C)(=O)=O)cc1)c1ccc(F)cc12 (racemic) [A, rac-threo-(E)-1-(N,N′-diethylaminoethanethio)-1-(butan-1′,4′-olido)-[3′,4′:1,2]-6-fluoro-2-methyl-3-(p-methylsulfonylbenzylidene)-indan]
Apoptosis inducing activity, Fold induction at 100 μM ([4]; 100 μM): <2.0 fold
COX Inhibition (COX; activity profile): −
cGMP PDE % Inhibition at 100 μM (cGMP-PDE): <25%
Growth inhibitory activity % Inhibition at 100 μM (HT-29 cells [5]): 68%

Compound: COc1cc(C=C2C(C)=C(CC(=O)O)c3cc(F)ccc32)cc(OC)c1OC [Compound B, (Z)-5-Fluoro-2-methyl-1-(3,4,5-trimethoxybenzylidene)-3-acetic acid]
COX Inhibition (COX; 100 μM): did not inhibit COX
COX Inhibition (COX; activity profile): −
cGMP PDE % Inhibition at 100 μM (cGMP-PDE): <25%

Compound: CCCc1nn(C)c2c(=O)[nH]c(-c3cc(S(=O)(=O)N4CCN(C)CC4)ccc3OCC)nc12 [Sildenafil]
apoptosis induction in neoplastic cells [4]: do not have significant apoptosis-inducing
inhibition of peak A / PDE5 activity (PDE peak A (PDE5)): inhibited activity of peak A
growth inhibition of neoplastic cells (HT-29 cells [5]): do not have significant apoptosis-inducing (Table 6) or growth-inhibiting

Compound: CCOC(=O)C1=C[C@]2(CC)CCCN3CCc4c(n1c1ccccc41)[C@@H]32 [Vinpocetine]
sensitivity of the new cGMP-PDE (peak B) to inhibition [3]: relatively insensitive

Compound: COc1cc(/C=C2/C(C)=C(CC(=O)NCc3ccccc3)c3cc(F)ccc32)cc(OC)c1OC [Compound E, (Z)-5-Fluoro-2-methyl-1-(3,4,5-trimethoxybenzylidene)-3-indenylacetamide, N-benzyl]
apoptosis induction in neoplastic cells [4]: induce apoptosis in neoplastic cells

Compound: COc1ccc(C2CNC(=O)C2)cc1OC1CCCC1 (centres unmarked) [Rolipram]
sensitivity of the new cGMP-PDE (peak B) to inhibition [3]: relatively insensitive

Compound: O=C([O-])C1CCN(c2nc(NCc3ccc4c(c3)OCO4)c3cc(Cl)ccc3n2)CC1.[Na+] [Compound E4021]
apoptosis induction in neoplastic cells [4]: do not have significant apoptosis-inducing
sensitivity of the new cGMP-PDE (peak B) to inhibition [3]: relatively insensitive
growth inhibition of neoplastic cells (HT-29 cells [5]): do not have significant apoptosis-inducing (Table 6) or growth-inhibiting
Growth inhibitory activity % Inhibition at 100 μM (HT-29 cells [5]): <50%

Compound: CSc1ccc(/C=C2/C(C)=C(CC(=O)O)c3cc(F)ccc32)cc1 [Sulindac sulfide]
apoptosis induction in neoplastic cells [4]: induce apoptosis in neoplastic cells
inhibition of formation of premalignant lesions [1]: inactive
apoptosis, morphological determination (HT-29 cells [6]): an increase in apoptosis
increase in levels of cGMP (HT-29 cells [7]): greater than 50%
IC50 (HT-29 cells [7]; Homo sapiens, 0.5 h, read-out: IC50 value for increase of cGMP levels): 7.3 µM

Compound: CC1(C)C(=O)Nc2ccc(C3=NNC(=O)CC3)cc21 [Indolidan]
sensitivity of the new cGMP-PDE (peak B) to inhibition [3]: relatively insensitive

Compound: CCCOc1ccccc1-c1nc2nn[nH]c2c(=O)[nH]1 [Zaprinast]
apoptosis induction in neoplastic cells [4]: do not have significant apoptosis-inducing
sensitivity of the new cGMP-PDE (peak B) to inhibition [3]: relatively insensitive
growth inhibition of neoplastic cells (HT-29 cells [5]): do not have significant apoptosis-inducing (Table 6) or growth-inhibiting

Compound: CC1=C(CC(=O)O)c2cc(F)ccc2/C1=C/c1ccc([S+](C)[O-])cc1 (centres unmarked) [sulindac sulfoxide]
inhibition of formation of premalignant lesions [1]: effectively inhibit the formation of premalignant lesions

Compound: CC1=C(CC(=O)O)c2cc(F)ccc2/C1=C\c1ccc(Cl)cc1 [C, (Z)-5-Fluoro-2-methyl-1-(p-chlorobenzylidene)-3-acetic acid]
Growth inhibitory activity % Inhibition at 100 μM (HT-29 cells [5]): 80%

Compound: CC(=O)N[C@@H](CSC12CC(=O)OC1(C)/C(=C/c1ccc(S(C)(=O)=O)cc1)c1ccc(F)cc12)C(=O)O (mixture of isomers) [D, rac-(E)-1-(butan-1′,4′-olide)-[3′,4′:1,2]-6-fluoro-2-methyl-3-(p-methylsulfonylbenzylidene)-1S-indanyl-N-acetylcysteine]
Apoptosis ([4]; activity profile): −
Mammary Gland Organ Culture ([1]; activity profile): −
COX Inhibition (COX; activity profile): −
PDE Inhibition (cGMP-PDE; activity profile): −
Growth inhibitory activity % Inhibition at 100 μM (HT-29 cells [5]): 78%
Growth Inhibition (HT-29 cells [5]; activity profile): ++
